Key:
human CD8 T cells = experiment: In vitro-activated human CD8+ T cells, memory characteristics; type: cell-based; conditions: anti-CD3/CD28 coupled beads for 72 h
Method: For evaluation of memory characteristics in human CD8+ T cells, naive CD8+ T cells were activated in the presence or absence of PARPi, by Dynabeads™ Human T-Activator CD3/CD28 (Thermo Fisher #11131), […]. Post-activation cells were gated upon CD8^+ T cell population and various characteristics were investigated as described in the Examples below.
A total of 0.1-0.2×10^6 cells per sample were stained for Live/Dead staining followed by fixation and permeabilization. For IFNγ and granzyme B (Gzm B) staining, BD Cytofix/Cytoperm (catalog no. 51-2090KZ) and BD Perm/Wash (catalog no. 51-2091KZ) buffer set were used according to the manufacturer's instructions (BD Pharmingen). CD8^+ T cells from tumor samples were stained similarly. Data acquisition was performed on a BD LSR II flow cytometer using the software FACS Diva v.9.0. Results were analyzed using FlowJo software (TreeStar). MitoFM, a green-fluorescent mitochondrial stain, which localizes to mitochondria, was used as described previously (Sukumar et al., Cell Metab 23 (1): 63-76, 2016).
To this end, human naïve CD8 T cells were activated with anti-CD3/CD28 coupled beads for 72 h.

pMel-1 CD8 T cells = type: cell-based; conditions: gp100-activated; for percentage of CD44hiCD62Lhi TCM CD8 T cell population: 48 h of treatment, for PARPi concentration-dependent
Method: For ACT experiments, CD8+ T cells from pMel-1 mice were activated with gp100 peptide with and without PARPi for 48 h. Based on their CD44 and CD62L expression, cells were sorted by FACS and transferred into 9-day-old B16F10 melanoma-bearing mice tumor-bearing mice (1×10^6 cells per mouse). Tumor growth and survival of mice were monitored.
A total of 0.1-0.2×10^6 cells per sample were stained for Live/Dead staining followed by fixation and permeabilization. […] CD8^+ T cells from tumor samples were stained similarly. Data acquisition was performed on a BD LSR II flow cytometer using the software FACS Diva v.9.0. Results were analyzed using FlowJo software (TreeStar). […]

Row | SMILES | IFNγ expression (human CD8 T cells) | number of CD45ROhiCCR7hi cells (human CD8 T cells) | number of CD45ROhiCD62Lhi cells (human CD8 T cells) | expression of IFNγ and Gzm B in CD44hiCD62Lhi CD8 T cells (pMel-1 CD8 T cells; 48 h) | percentage of CD44hiCD62Lhi TCM CD8 T cell population (pMel-1 CD8 T cells)
1 | Cn1ncnc1[C@H]1c2n[nH]c(=O)c3cc(F)cc(c23)N[C@@H]1c1ccc(F)cc1 [Talazoparib] | significant increase | significant increase | significant increase | significantly increased | significantly increased
2 | NC(=O)c1cccc2cn(-c3ccc([C@@H]4CCCNC4)cc3)nc12 [Niraparib] |  |  |  |  | significantly increased

Reference: patent US20260286302A1, “METHODS FOR PRODUCING A SUPER CENTRAL MEMORY CD8 T CELL SUBTYPE BY POLY(ADP-RIBOSE) POLYMERASE (PARP) INHIBITION AND USES THEREOF” (Georgetown University, priority 2023, published 2026)
